Data as given in US7048907B2, “Synthesis, compositions and methods for the measurement of the concentration of stable-isotope labeled compounds in life forms and life form excretory products” (BioPhysics Assay Laboratory, Inc., priority 2001, dated 2006).

Columns and labels:
[1] = Blood depletion of Gd-DTPA in the rat after three sequential administrations (theoretical example); assay type: in vivo
Protocol: In this theoretical example, three 0.5 ml samples of Gd-DTPA (0.05 mg/kg) each dissolved in saline (pH 7) are injected sequentially at 0, 20, and 40 minutes into the tail vein of a rat. Samples of blood are obtained at 10, 30 and 60 minutes following each injection and analyzed for Gd by T1 relaxation. […] This example highlights one advantage of using neutron activation over T1 relaxivity to measure pharmacological rates of elimination when using sequential injections (compare Examples 32 and 33).

[2] = demonstrated by properties of the marketed pharmaceutical product; cited from earlier work
[3] = Stability of chelates in rat serum (CM-Sephadex assay, serum binding); details: 24 hours in rat serum at room temperature
[4] = Effect of dilution on the stability of Sm-DTPA; assay type: physicochemical
Protocol: Sm-DTPA (1 mM) was prepared as described in Example 9. The solution was further diluted with 0.01 M Tris buffer pH 7.51:10, 1:100, 1:1000, and 1:10000 and allowed to stand at room temperature for 24 hours. The four samples were then assayed for stability of the Sm-DTPA complex as described in Example 17.

[5] = Fraction 1: 0.2 ml sample then 2 ml 0.01M Tris pH 7.5 (eluate)
[6] = Fraction 2: 3 ml 0.01M Tris pH 7.5
[7] = Fraction 3: column and contents (retained)
[8] = Sm-DTPA 0.1 μM, 24 hours room temperature, Fraction 1: 3 ml Tris before sample
[9] = Sm-DTPA 0.1 μM, 24 hours room temperature, Fraction 2: sample then 3 ml Tris (eluate)
[10] = Sm-DTPA 0.1 μM, 24 hours room temperature, Fraction 3: further 3 ml Tris
[11] = Sm-DTPA 0.1 μM, 24 hours room temperature, Fraction 4: column and contents
[12] = Sm-DTPA 1 μM, 24 hours room temperature, Fraction 1: 3 ml Tris before sample
[13] = Sm-DTPA 1 μM, 24 hours room temperature, Fraction 2: sample then 3 ml Tris (eluate)
[14] = Sm-DTPA 1 μM, 24 hours room temperature, Fraction 3: further 3 ml Tris
[15] = Sm-DTPA 1 μM, 24 hours room temperature, Fraction 4: column and contents
[16] = Sm-DTPA 10 μM, 24 hours room temperature, Fraction 1: 3 ml Tris before sample
[17] = Sm-DTPA 10 μM, 24 hours room temperature, Fraction 2: sample then 3 ml Tris (eluate)
[18] = Sm-DTPA 10 μM, 24 hours room temperature, Fraction 3: further 3 ml Tris
[19] = Sm-DTPA 10 μM, 24 hours room temperature, Fraction 4: column and contents
[20] = Sm-DTPA 100 uM, 24 hours room temperature, Fraction 1: 3 ml Tris before sample
[21] = Sm-DTPA 100 uM, 24 hours room temperature, Fraction 2: sample then 3 ml Tris (eluate)
[22] = Sm-DTPA 100 uM, 24 hours room temperature, Fraction 3: further 3 ml Tris
[23] = Sm-DTPA 100 uM, 24 hours room temperature, Fraction 4: column and contents
[24] = Sm-DTPA 1 mM, Fraction 1: 3 ml Tris before sample
[25] = Sm-DTPA 1 mM, Fraction 2: sample then 3 ml Tris (eluate)
[26] = Sm-DTPA 1 mM, Fraction 3: further 3 ml Tris
[27] = Sm-DTPA 1 mM, Fraction 4: column and contents

## O=C([O-])CN(CCN(CC(=O)[O-])CC(=O)O)CCN(CC(=O)[O-])CC(=O)O.[Gd+3] [Gd-DTPA, Gd-diethylenetriaminepentaacetic acid]
[1]; 0 min after 1st injection, Gd-DTPA 0.05 mg/kg i.v. at 0, 20, 40 minutes, T1 relaxation
  Percent of initial injection, First injection: 100% of initial injection
[1]; 0 min after 1st injection, calculated based upon the first injection
  Percent of initial injection, Cumulative total: 100% of initial injection
[1]; 10 min after 1st injection
  Percent of initial injection, Cumulative total: 81% of initial injection
  Percent of initial injection, First injection: 81% of initial injection
[1]; 20 min after 1st (0 min after 2nd) injection
  Percent of initial injection, Second injection: 100% of initial injection
[1]; 20 min after 1st injection
  Percent of initial injection, Cumulative total: 173% of initial injection
  Percent of initial injection, First injection: 73% of initial injection
[1]; 30 min after 1st (10 min after 2nd) injection
  Percent of initial injection, Second injection: 81% of initial injection
[1]; 30 min after 1st injection
  Percent of initial injection, Cumulative total: 140% of initial injection
  Percent of initial injection, First injection: 59% of initial injection
[1]; 40 min after 1st (0 min after 3rd) injection
  Percent of initial injection, Third injection: 100% of initial injection
[1]; 40 min after 1st (20 min after 2nd) injection
  Percent of initial injection, Second injection: 73% of initial injection
[1]; 40 min after 1st injection
  Percent of initial injection, Cumulative total: 220% of initial injection
  Percent of initial injection, First injection: 47% of initial injection
[1]; 50 min after 1st (10 min after 3rd) injection
  Percent of initial injection, Third injection: 81% of initial injection
[1]; 50 min after 1st (30 min after 2nd) injection
  Percent of initial injection, Second injection: 59% of initial injection
[1]; 50 min after 1st injection
  Percent of initial injection, Cumulative total: 175% of initial injection
  Percent of initial injection, First injection: 35% of initial injection
[1]; 60 min after 1st (20 min after 3rd) injection
  Percent of initial injection, Third injection: 73% of initial injection
[1]; 60 min after 1st (40 min after 2nd) injection
  Percent of initial injection, Second injection: 47% of initial injection
[1]; 60 min after 1st injection
  Percent of initial injection, Cumulative total: 149% of initial injection
  Percent of initial injection, First injection: 29% of initial injection
[1]; 70 min after 1st (30 min after 3rd) injection
  Percent of initial injection, Third injection: 59% of initial injection
[1]; 70 min after 1st (50 min after 2nd) injection
  Percent of initial injection, Second injection: 35% of initial injection
[1]; 70 min after 1st injection
  Percent of initial injection, Cumulative total: 120% of initial injection
  Percent of initial injection, First injection: 26% of initial injection
[1]; 80 min after 1st (40 min after 3rd) injection
  Percent of initial injection, Third injection: 47% of initial injection
[1]; 80 min after 1st (60 min after 2nd) injection
  Percent of initial injection, Second injection: 26% of initial injection
[1]; 80 min after 1st injection
  Percent of initial injection, Cumulative total: 95% of initial injection
  Percent of initial injection, First injection: 22% of initial injection
[1]; 100 min after 1st (60 min after 3rd) injection
  Percent of initial injection, Third injection: 35% of initial injection
[1]; 100 min after 1st (80 min after 2nd) injection
  Percent of initial injection, Second injection: 22% of initial injection
[1]; 100 min after 1st injection
  Percent of initial injection, Cumulative total: 75% of initial injection
  Percent of initial injection, First injection: 18% of initial injection
[2]
  stability to autoclaving: stability of gadolinium-DTPA to autoclaving is demonstrated

## O=C([O-])CN(CCN(CC(=O)[O-])CC(=O)[O-])CCN(CC(=O)[O-])CC(=O)[O-].[La+3] [La-DTPA]
[3]; [5]
  % of total: 93 % of total
  dpm: 82912 dpm
[3]; [6]
  % of total: 7 % of total
  dpm: 6167 dpm
[3]; [7]
  % of total: 0 % of total
  dpm: 0 dpm

## O=C([O-])CN(CCN(CC(=O)[O-])CC(=O)[O-])CCN(CC(=O)[O-])CC(=O)[O-].[Sm+3] [Sm-DTPA]
[4]; [8]
  % of total: 0 % of total
  Dpm: 0 dpm
[4]; [9]
  % of total: 99 % of total
  Dpm: 192 dpm
[4]; [10]
  % of total: 1 % of total
  Dpm: 1 dpm
[4]; [11]
  % of total: 0 % of total
  Dpm: 0 dpm
[4]; [12]
  % of total: 0 % of total
  Dpm: 0 dpm
[4]; [13]
  % of total: 96 % of total
  Dpm: 1386 dpm
[4]; [14]
  % of total: 2 % of total
  Dpm: 29 dpm
[4]; [15]
  % of total: 2 % of total
  Dpm: 21 dpm
[4]; [16]
  % of total: 0 % of total
  Dpm: 0 dpm
[4]; [17]
  % of total: 100 % of total
  Dpm: 15685 dpm
[4]; [18]
  % of total: <1 % of total
  Dpm: 19 dpm
[4]; [19]
  % of total: 0 % of total
  Dpm: 0 dpm
[4]; [20]
  % of total: 0 % of total
  Dpm: 0 dpm
[4]; [21]
  % of total: 98 % of total
  Dpm: 162208 dpm
[4]; [22]
  % of total: <1 % of total
  Dpm: 1308 dpm
[4]; [23]
  % of total: 2 % of total
  Dpm: 2121 dpm
[4]; [24]
  % of total: 0 % of total
  Dpm: 0 dpm
[4]; [25]
  % of total: 97 % of total
  Dpm: 1482087 dpm
[4]; [26]
  % of total: 1 % of total
  Dpm: 19089 dpm
[4]; [27]
  % of total: 2 % of total
  Dpm: 24257 dpm
[4]; concentration limits of 1 mM to 0.1 μM, 24 hours room temperature
  stability of the complex on dilution: stable complex
[4]; concentration range of 0.1 μM to 1 mM
  % eluting from CM Sephadex columns: 100%

## O=C([O-])CN(CCN(CC(=O)[O-])CC(=O)[O-])CCN(CC(=O)[O-])CC(=O)[O-].[Eu+3] [Eu-DTPA]
[3]; [5]
  % of total: 91 % of total
  dpm: 4763 dpm
[3]; [6]
  % of total: 9 % of total
  dpm: 499 dpm
[3]; [7]
  % of total: 0 % of total
  dpm: 0 dpm
